The assay has as its target T1, human vasopressin V1a receptor subtype (Homo sapiens, UniProt P37288).
T1 construct: host or cells: CHO cells (pZeoSV vector for the Thibonnier line)
Briefly: Vasopressin binding in Chinese Hamster Ovary cell membranes expressing human vasopressin V1a subtype receptors. The settings on record: CHO cell membranes, [3H]Manning ligand; for IC50: values in parentheses; for inhibition at 0.1 µM: 100 nM, values without parentheses. A digest of the protocol:
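Membranes from CHO cells expressing human V1a receptor were incubated with [3H]Manning ligand (added as 20 μL of 8 nM) in pH 7.4 Tris buffer with MgCl2, BSA and protease inhibitors, 60 min at room temperature. Bound radioactivity was counted after filtration; values are percent inhibition at a stated concentration or IC50.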

The values that follow come from US7109193B2, “Tricyclic diazepines tocolytic oxytocin receptor antagonists” (Wyeth, priority 2001, dated 2006).

T1 sequence (P37288 whole entry): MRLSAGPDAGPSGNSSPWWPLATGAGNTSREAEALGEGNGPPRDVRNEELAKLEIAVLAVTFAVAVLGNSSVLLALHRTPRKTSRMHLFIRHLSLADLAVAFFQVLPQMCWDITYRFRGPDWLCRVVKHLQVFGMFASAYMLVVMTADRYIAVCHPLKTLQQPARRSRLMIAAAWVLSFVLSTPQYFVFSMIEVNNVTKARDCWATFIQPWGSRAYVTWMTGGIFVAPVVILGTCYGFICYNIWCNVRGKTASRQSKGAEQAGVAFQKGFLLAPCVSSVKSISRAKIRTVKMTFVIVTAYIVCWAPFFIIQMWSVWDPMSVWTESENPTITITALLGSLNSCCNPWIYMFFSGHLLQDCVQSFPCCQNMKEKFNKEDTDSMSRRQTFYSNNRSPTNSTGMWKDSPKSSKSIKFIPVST

With `COc1cc(-c2ccccc2C)c(Cl)cc1C(=O)N1Cc2ccc(C(=O)N(C)CCN(C)C)n2Cc2ccccc21` [Example 86, 10-[(6-Chloro-3-methoxy-2′-methyl[1,1′-biphenyl]-4-yl)carbonyl]-N-[2-(dimethylamino)ethyl]-N-methyl-10,11-dihydro-5H-pyrrolo[2,1-c][1,4]benzodiazepine-3-carboxamide], the IC50 amounted to 0.172 µM.
For the molecule `COc1cccc(-c2cc(OC)c(C(=O)N3Cc4ccc(C(=O)N(C)CCN(C)C)n4Cc4ccccc43)cc2Cl)c1` [Example 87, 10-[(6-Chloro-3,3′-dimethoxy[1,1′-biphenyl]-4-yl)carbonyl]-N-[2-(dimethylamino)ethyl]-N-methyl-10,11-dihydro-5H-pyrrolo[2,1-c][1,4]benzodiazepine-3-carboxamide], the IC50 stood at 0.349 µM.
Turning to `COc1ccccc1-c1ccc(C(=O)N2Cc3ccc(C(=O)N(C)CCN(C)C)n3Cc3ccccc32)cc1C` [Example 88, N-[2-(Dimethylamino)ethyl]-10-[(2′-methoxy-2-methyl[1,1′-biphenyl]-4-yl)carbonyl]-N-methyl-10,11-dihydro-5H-pyrrolo[2,1-c][1,4]benzodiazepine-3-carboxamide], the inhibition at 0.1 µM came to 44%.
On the same count and under the same terms, next, `COc1cccc(-c2ccc(C(=O)N3Cc4ccc(C(=O)N(C)CCN(C)C)n4Cc4ccccc43)cc2C)c1` [Example 89, N-[2-(Dimethylamino)ethyl]-10-[(3′-methoxy-2-methyl[1,1′-biphenyl]-4-yl)carbonyl]-N-methyl-10,11-dihydro-5H-pyrrolo[2,1-c][1,4]benzodiazepine-3-carboxamide]: 50%; `COc1ccccc1-c1ccc(C(=O)N2Cc3ccc(C(=O)N(C)CCN(C)C)n3Cc3ccccc32)cc1` [Example 90, N-[2-(Dimethylamino)ethyl]-10-[(2′-methoxy[1,1′-biphenyl]-4-yl)carbonyl]-N-methyl-10,11-dihydro-5H-pyrrolo[2,1-c][1,4]benzodiazepine-3-carboxamide]: 63%; `Cc1ccccc1-c1ccc(C(=O)N2Cc3ccc(C(=O)N(C)CCN(C)C)n3Cc3ccccc32)cc1` [Example 91, N-[2-(Dimethylamino)ethyl]-N-methyl-10-[(2′-methyl[1,1′-biphenyl]-4-yl)carbonyl]-10,11-dihydro-5H-pyrrolo[2,1-c][1,4]benzodiazepine-3-carboxamide]: 90%.
In the case of `COc1cc(C(=O)N2Cc3ccc(C(=O)N(C)CCN(C)C)n3Cc3ccccc32)ccc1-c1ccccc1C` [Example 92, N-[2-(Dimethylamino)ethyl]-10-[(2-methoxy-2′-methyl[1,1′-biphenyl]-4-yl)carbonyl]-N-methyl-10,11-dihydro-5H-pyrrolo[2,1-c][1,4]benzodiazepine-3-carboxamide], the inhibition at 0.1 µM came out at 78%.
Still for that read-out and setting: in the case of `COc1cc(C(=O)N2Cc3ccc(C(=O)N(C)CCN(C)C)n3Cc3ccccc32)ccc1-c1cccc2ccccc12` [Example 93, N-[2-(Dimethylamino)ethyl]-10-[3-methoxy-4-(1-naphthyl)benzoyl]-N-methyl-10,11-dihydro-5H-pyrrolo[2,1-c][1,4]benzodiazepine-3-carboxamide] it was 29%.
With `COc1ccccc1-c1ccc(C(=O)N2Cc3ccc(C(=O)N(C)CCN(C)C)n3Cc3ccccc32)cc1OC` [Example 94, 10-[(2,2′-Dimethoxy[1,1′-biphenyl]-4-yl)carbonyl]-N-[2-(dimethylamino)ethyl]-N-methyl-10,11-dihydro-5H-pyrrolo[2,1-c][1,4]benzodiazepine-3-carboxamide], the inhibition at 0.1 µM is 28%.
Same read-out and setting: next, `COc1cccc(-c2ccc(C(=O)N3Cc4ccc(C(=O)N(C)CCN(C)C)n4Cc4ccccc43)cc2OC)c1` [Example 95, 10-[(2,3′-Dimethoxy[1,1′-biphenyl]-4-yl)carbonyl]-N-[2-(dimethylamino)ethyl]-N-methyl-10,11-dihydro-5H-pyrrolo[2,1-c][1,4]benzodiazepine-3-carboxamide]: 68%.
